Assay results: the supplement of paper PMC10307832

Key:
Experiment in all cases: relative viability (nuclei count vs DMSO), 5 days (fraction); higher = more cells survive
[1] = compound: CCn1c(-c2nonc2N)nc2c(C#CC(C)(C)O)ncc(OC[C@H]3CCCNC3)c21 + Cc1cc(Nc2cc(N3CCN(C)CC3)nc(Sc3ccc(NC(=O)C4CC4)cc3)n2)n[nH]1 [Tozasertib] (partner 0.1 µM)
Method in brief: (§1)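 The day after seeding in 1536-well plates, lung cancer cell lines were treated by pin tool with a single drug, or with a fixed anchor-drug dose together with five library-drug doses (not always all listed) in √10 steps. After 5 days, a combined fix-and-stain solution (final 0.05% Triton X-100, 1% formaldehyde, 1 ug/ml Hoechst) was added. Nuclei counted on 4× images gave relative viability as treated counts over vehicle counts, reported as the median of duplicate plates.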

BAM7 + Lapatinib = compound: CCOC1=CC=CC=C1N=NC2=C(NN(C2=O)C3=NC(=CS3)C4=CC=CC=C4)C [BAM7] + CS(=O)(=O)CCNCc1ccc(-c2ccc3ncnc(Nc4ccc(OCc5cccc(F)c5)c(Cl)c4)c3c2)o1 [Lapatinib] (partner 2 µM)
Method in brief: as §1

[2] = compound: CCn1c(-c2nonc2N)nc2c(C#CC(C)(C)O)ncc(OC[C@H]3CCCNC3)c21 + Cc1nc(NC(=O)N2CCC[C@H]2C(N)=O)sc1-c1ccnc(C(C)(C)C(F)(F)F)c1 [Alpelisib] (partner 2 µM)
Method in brief: as §1

[3] = compound: CCn1c(-c2nonc2N)nc2c(C#CC(C)(C)O)ncc(OC[C@H]3CCCNC3)c21 + O=C(c1cc(Cc2n[nH]c(=O)c3ccccc23)ccc1F)N1CCN(C(=O)C2CC2)CC1 [Olaparib] (partner 8 µM)
Method in brief: as §1

Cell Line	relative viability ([1]; first compound 0.01 µM)	relative viability ([1]; first compound 0.03162 µM)	relative viability ([1]; first compound 0.1 µM)	relative viability ([1]; first compound 0.3162 µM)	relative viability ([1]; first compound 1 µM)	relative viability (BAM7 + Lapatinib; first compound 0.5 µM)	relative viability (BAM7 + Lapatinib; first compound 5 µM)	relative viability (BAM7 + Lapatinib; first compound 15.81 µM)	relative viability (BAM7 + Lapatinib; first compound 50 µM)	relative viability ([2]; first compound 0.01 µM)	relative viability ([2]; first compound 0.03162 µM)	relative viability ([2]; first compound 0.1 µM)	relative viability ([2]; first compound 0.3162 µM)	relative viability ([2]; first compound 1 µM)	relative viability ([3]; first compound 0.01 µM)	relative viability ([3]; first compound 0.03162 µM)	relative viability ([3]; first compound 0.1 µM)	relative viability ([3]; first compound 0.3162 µM)	relative viability ([3]; first compound 1 µM)
LXF-289	0.218	0.194	0.169	0.184	0.197	0.947	0.951	0.913	0.851	1.04	1.02	1.01	0.983	1.04	1.06	1.1	1.03	0.973	1.05
NCI-H23	0.398	0.438	0.568	0.384	0.432	1.48	1.1	0.997	1.26	0.605	0.717	0.686	0.528	0.588	0.294	0.275	0.269	0.309	0.313
NCI-H322M	0.465	0.419	0.423	0.42	0.448	0.659	0.593	0.577	0.572	0.868	0.765	0.121	0.853	0.813	0.779	0.71	0.693	0.749	0.831
NCI-H358	0.0952	0.0863	0.103	0.1	0.097	0.46	0.522	0.479	0.568	0.896	0.784	0.787	0.687	0.701	0.556	0.601	0.569	0.525	0.518
NCI-H460	0.533	0.542	0.447	0.461	0.532	0.904	1.13	0.953	1.03	0.439	0.496	0.477	0.447	0.437	0.363	0.411	0.474	0.403	0.495
NCI-H520	0.41	0.482	0.323	0.358	0.335	0.804	0.904	0.93	1.03	1.01	0.883	0.605	0.851	0.547	0.337	0.341	0.236	0.194	0.169
NCI-H596	1.07	0.886	0.862	0.951	0.792	0.984	1.14	1.01	1.12	0.365	0.522	0.482	0.487	0.503	0.682		0.72	0.697	0.871
NCI-H647	0.26	0.326	0.255	0.312	0.396	1.06	0.926	1.01	1.06	1.2	1.17	1.02	1.03	1.23	0.467	0.775	0.486	0.561	0.517
NCI-H650	0.724	0.746	0.73	0.723	0.694	0.787	0.92	0.842	1.13	1.1	1.21	1.02	1.04	1.24	0.387	0.43	0.435	0.371	0.392
NCI-H661	0.362	0.343	0.354	0.364	0.382	0.704	0.494	0.41	0.54	0.562	0.553	0.603	0.635	0.576	0.713	0.755	0.836	0.771	0.758
NCI-H727	0.605	0.662	0.643	0.693	0.575	0.923	1.1	0.788	0.834	0.576	0.527	0.714	0.608	0.479	0.801	0.668	0.751	0.805	0.869
NCI-H838	0.276	0.295	0.29	0.248	0.253	1.03	1.04	0.908	1.14	1.05	1.02	1.03	0.979	0.989	0.74	0.838	0.804	0.726	0.76
NCI-H1355	0.572	0.629	0.549	0.611	0.612	0.972	1.01	0.986	1.02	0.863	0.732	0.786	0.825	0.82	0.689	0.774	0.734	0.709	0.735
NCI-H1395	0.776	0.763	0.736	0.651	0.659	0.826	1.03	1.17	1.33	0.986	1.35	1.01	0.79	0.76	0.464	0.412	0.472	0.433	0.372
NCI-H1437	0.38	0.461	0.422	0.39	0.432	0.686	0.514	0.51	0.68	0.895	0.964	0.965	0.778	0.902	0.633	0.648	0.64	0.605	0.625
NCI-H1651	0.633	0.624	0.794	0.762	0.805	0.747	0.756	0.831	0.858	1.01	0.879	0.937	0.917	1.19	0.194	0.189	0.197	0.185	0.215
NCI-H1666	0.625	0.691	0.644	0.578	0.567	0.47	0.7	0.564	0.754	0.874	1.1	0.992	0.792	0.831	0.793	0.722	0.752	0.769	0.778

Cell Line	relative viability ([1]; first compound 0.01 µM)	relative viability ([1]; first compound 0.03162 µM)	relative viability ([1]; first compound 0.1 µM)	relative viability ([1]; first compound 0.3162 µM)	relative viability ([1]; first compound 1 µM)	relative viability (BAM7 + Lapatinib; first compound 0.5 µM)	relative viability (BAM7 + Lapatinib; first compound 5 µM)	relative viability (BAM7 + Lapatinib; first compound 15.81 µM)	relative viability (BAM7 + Lapatinib; first compound 50 µM)	relative viability ([2]; first compound 0.01 µM)	relative viability ([2]; first compound 0.03162 µM)	relative viability ([2]; first compound 0.1 µM)	relative viability ([2]; first compound 0.3162 µM)	relative viability ([2]; first compound 1 µM)	relative viability ([3]; first compound 0.01 µM)	relative viability ([3]; first compound 0.03162 µM)	relative viability ([3]; first compound 0.1 µM)	relative viability ([3]; first compound 0.3162 µM)	relative viability ([3]; first compound 1 µM)
NCI-H1734	0.262	0.258	0.285	0.26	0.268	1.1	1.23	0.974	1.11	0.652	0.624	0.631	0.655	0.658	0.625	0.573	0.575	0.555	0.618
NCI-H1755	0.617	0.498	0.572	0.55	0.61	1.06	1.13	1.04	0.979	0.943	0.944	0.896	0.916	0.981	0.969	0.891	0.873	0.847	0.917
NCI-H1793	0.361	0.421	0.487	0.343	0.35	0.8	0.636	0.64	0.93	0.815	0.812	0.508	0.592	0.64	0.765	1.26		0.742	0.933
NCI-H1915	0.439	0.424	0.422	0.413	0.464	1.02	1.09	0.911	1.04	1.06	1.06	1.02	1.04	1.08	0.258	0.277	0.225	0.249	0.255
NCI-H1944	0.287	0.247	0.266	0.236	0.249	0.894	0.998	0.842	0.954	0.886	0.759	0.844	0.804	0.777	0.393	0.418	0.4	0.41	0.407
NCI-H1975	0.768	0.715	0.757	0.777	0.658	0.848	0.77		0.819	0.716	0.656	0.623	0.543	0.583	0.745	0.809	0.837	0.784	0.757
NCI-H1993	0.585	0.591	0.549	0.609	0.574	0.76	0.915	0.763	0.906	0.732	0.718	0.57	0.729	0.868	1.14	1.13	0.963	0.943	0.985
NCI-H2009	0.72	0.811	0.724	0.668	0.771	1.03	1.06	0.898	0.938	1.15	1.19	1.22	1.17	1.18	0.655	0.673	0.682	0.685	0.75
NCI-H2023	0.339	0.379	0.341	0.305	0.343	1.05	0.751	0.737	1.09	0.636	0.625	0.539	0.504	0.559	0.501	0.454	0.437	0.381	0.475
NCI-H2085	0.81	0.771	0.811	0.822	0.729	0.764	0.612	0.74	0.881	0.974	0.866	0.988	0.865	0.84	0.758	0.807	0.795	0.755	0.725
NCI-H2087	0.264	0.258	0.248	0.259	0.303	1.12	1.17	1.08	0.934	0.917	1.2	1.13	1.02	0.927	0.528		0.533	0.569	0.543
NCI-H2126	0.829	0.885	0.806	0.817	0.863	0.726	0.664	0.743	0.755	0.72	0.793	0.74	0.746	0.753	0.917	0.927	0.977	0.893	0.95
NCI-H2170	0.769	0.755	0.778	0.705	0.733	0.264	0.285	0.258	0.287	0.837	0.833	0.824	0.721	0.759	0.654	0.567	0.645	0.559	0.586
NCI-H2228	0.222	0.278	0.229	0.246	0.252	1.31	1.19	1.05	1.1	0.68	0.854	0.622	0.651	0.569	0.701	0.895	0.847	0.541	0.55
NCI-H2347	0.6	0.59		0.613	0.583	0.968	1.26	0.899	1.03	1.09	0.97	0.992	0.972	1.17	0.567	0.512	0.6	0.608	0.549
NCI-H2405	0.768	0.806	0.692	0.71	0.706	1.1	1.26	1.12	1.1	0.839	0.782		0.749	0.855	0.836	0.844	0.821	0.8	0.915
NCI-H3122	0.369	0.405	0.396	0.369	0.337	1.09	1.04	1.04	1.03	0.869	0.71	0.795	0.798	0.756	0.591	0.62	0.632	0.559	0.609
